pKi: −log10 of the molar value.
Experiments:
Carbonic anhydrase 2 = Carbonic anhydrase 2 (Homo sapiens, UniProt P00918)
Description: Inhibitory activity against human cloned carbonic anhydrase II (hCA II)

Carbonic anhydrase 4 = target: T1, Carbonic anhydrase 4 (Bos taurus, UniProt Q95323)
T1 sequence (Q95323 whole entry): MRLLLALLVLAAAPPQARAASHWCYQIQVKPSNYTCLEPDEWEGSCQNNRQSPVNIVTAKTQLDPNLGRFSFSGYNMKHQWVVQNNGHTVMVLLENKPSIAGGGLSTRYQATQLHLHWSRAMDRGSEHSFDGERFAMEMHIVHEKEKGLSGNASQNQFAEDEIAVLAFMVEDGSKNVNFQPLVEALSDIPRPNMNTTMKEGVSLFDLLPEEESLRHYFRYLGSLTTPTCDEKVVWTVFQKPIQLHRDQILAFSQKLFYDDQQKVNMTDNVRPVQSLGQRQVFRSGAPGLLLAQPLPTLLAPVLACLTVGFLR
Description: Inhibitory activity against carbonic anhydrase isolated from bovine lung microsome (bCA IV)

Carbonic anhydrase 1 = Carbonic anhydrase 1 (Homo sapiens, UniProt P00915)
Chain of Carbonic anhydrase 1 (P00915 whole entry): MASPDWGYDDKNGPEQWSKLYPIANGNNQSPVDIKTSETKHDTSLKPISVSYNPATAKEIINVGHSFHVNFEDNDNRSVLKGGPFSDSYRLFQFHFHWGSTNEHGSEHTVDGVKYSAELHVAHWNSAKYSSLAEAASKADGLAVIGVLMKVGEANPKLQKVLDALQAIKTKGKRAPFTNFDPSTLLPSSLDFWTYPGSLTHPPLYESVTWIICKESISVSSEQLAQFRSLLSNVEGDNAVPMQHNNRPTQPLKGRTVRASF
Description: Inhibitory activity against human cloned carbonic anhydrase I (hCA I)

| Compound | pKi (Carbonic anhydrase 2) | pKi (Carbonic anhydrase 4) | pKi (Carbonic anhydrase 1) |
| --- | --- | --- | --- |
| CC1(C)O[C@@H]2[C@@H](CO[C@@]3(C(=O)NS(N)(=O)=O)OC(C)(C)O[C@@H]23)O1 | < 4.00 | < 4.00 | < 4.00 |
| CC1(C)O[C@@H]2[C@@H](CO[C@@]3(C(=O)NNS(N)(=O)=O)OC(C)(C)O[C@@H]23)O1 | < 4.00 | < 4.00 | < 4.00 |
| NS(=O)(=O)O [SULFAMATE] |  |  | 4.68 |
| CC1(C)O[C@H]2[C@@H](O1)[C@@H](C(=O)NNS(N)(=O)=O)O[C@@H]1OC(C)(C)O[C@@H]12 | 4.82 | 4.52 | < 4.00 |
| CC1(C)O[C@@H]2O[C@@H](COS(N)(=O)=O)[C@H]3OC(C)(C)O[C@H]3[C@@H]2O1 | 4.89 | 4.57 | 3.40 |
| CC1(C)OC[C@@H]2O[C@@]3(C(=O)NS(N)(=O)=O)OC(C)(C)O[C@H]3[C@@H]2O1 | 7.17 | 6.37 | 6.12 |
| CC1(C)OC[C@@H]2O[C@@]3(COC(=O)NS(N)(=O)=O)OC(C)(C)O[C@H]3[C@@H]2O1 | 7.15 | 6.89 | 5.92 |

The next lines start with the values.

| pKi (Carbonic anhydrase 2) | pKi (Carbonic anhydrase 4) | pKi (Carbonic anhydrase 1) | Compound |
| --- | --- | --- | --- |
| 4.68 | 4.48 | 3.38 | CC1(C)OC[C@@H]2O[C@@]3(C(=O)NNS(N)(=O)=O)OC(C)(C)O[C@H]3[C@@H]2O1 |
| 7.62 | 7.35 | 6.38 | CC1(C)O[C@@H]2[C@@H](CO[C@@]3(COC(=O)NS(N)(=O)=O)OC(C)(C)O[C@@H]23)O1 |
| 4.60 | 4.34 | < 4.00 | CC1(C)O[C@@H]2O[C@@H](C(=O)NS(N)(=O)=O)[C@H]3OC(C)(C)O[C@H]3[C@@H]2O1 |

Reference: ChEMBL document CHEMBL1136616, “Carbonic anhydrase inhibitors: SAR and X-ray crystallographic study for the interaction of sugar sulfamates/sulfamides with isozymes I, II and IV” (Bioorg Med Chem Lett, 2003)
